Type in all cases: cell-based
Assay [1] has as its system Klebsiella. Description: minimum inhibitory concentration against a panel of human pathogens. Here is the method:
(§1) Using well established methodologies, the minimum inhibitory concentration of simvastatin was determined against a panel of human pathogens.

Assay [2] has as its system E. faecium. Described as above. Conditions: Enterococcus faecium. Here is the method:
as §1

The test system of assay [3] is P. aeruginosa. The assay is described as above. Conditions: Pseudomonas aeruginosa. Here is the method: as §1
For assay [4], the system named is S. aureus. The assay is described as above. The note with it: Staphylococcus aureus. Here is the method: as §1
The test system of assay [5] is S. mutans. The assay is described as above. The note with it: Streptococcus mutans. Here is the method:
as §1

Assay [6] has as its system E. faecalis. The assay is described as above. The note with it: Enterococcus faecalis. Here is the method: as §1
In assay [7] the test system is Streptococcus mutans UA159. Description: growth of S. mutans in planktonic culture (optical density at 600 nm, BHI medium). Conditions: rich medium, FIG. 1. Here is the method: Bacterial Strain. The strain of Streptococcus mutans used in these experiments is referred to as UA159, the genomic type strain of these organisms (Murchison et al., Infect. Immun. 54(2):273-82 (1986); Ajdic et al., Proc. Natl. Acad. Sci. USA 99(22):14434-9 (2002)). Growth experiments. Two types of growth experiments were conducted: growth of the organism in planktonic culture and growth of the organism in a mono-species biofilm culture. In the planktonic culture experiments, the effects of simvastatin concentration on the growth ability of Streptococcus mutans UA159 was determined. In the second set of experiments, the effects of simvastatin concentration on the ability of S. mutans to produce extracellular polysaccharides (EPS), which is highly related to its ability to grow and survive on the surfaces of teeth (Yamashita et al., Infect. Immun 61(9):3811-7 (1993)), was determined. The planktonic experiments were conducted by growing S. mutans in Brain Heart Infusion medium (BHI) supplemented with specific concentrations of simvastatin dissolved in 1% ethanol/99% water. Simvastatin was obtained from Sigma Chemical Co. (St. Louis, Mo.). Growth was monitored as increasing optical density at 600 nm, using a BioScreen C automated-recording instrument, set at 37° C. and with shaking set at 10 seconds, every 15 minutes, to ensure suspension of the culture (Growth Curves USA, N.J.). […]

Structures are written as SMILES. Converted amounts (≈) assume the structure as drawn.

Here are results for 1 compound from patent US20140186271A1, “REDUCING DENTAL CARIES” (UNIVERSITY OF ROCHESTER, priority 2011, published 2014).

For the compound `CCC(C)(C)C(=O)O[C@H]1C[C@@H](C)C=C2C=C[C@H](C)[C@H](CC[C@@H]3C[C@@H](O)CC(=O)O3)[C@H]21` [simvastatin], the MIC was 64 mg/L (≈ 153 µM) in assay [1]; 64 mg/L (≈ 153 µM) in assay [2]; greater than 256 mg/L in assay [3]; 64 mg/L (≈ 153 µM) in assay [4]; 16 mg/L (≈ 38.2 µM) in assay [5]; 64 mg/L (≈ 153 µM) in assay [6]. Further, the “concentration at which growth was effectively halted” value in assay [7] is no less than 64 µg/mL.
